Read-outs that look alike come from different tables or passages of the source.
System: H1650 cells
Experiment: CellTiterGlo (CTG) cell viability, 3D, 120 h, H1650 (Example 8)
Format: cell-based, human
Details: Homo sapiens, NCI-H1650, H1650 3D
[1] = experiment n1, read-out: H1650 3D CTG IC50 n1
[2] = experiment n2, read-out: H1650 3D CTG IC50 n2
[3] = mean of n1 and n2, read-out: H1650 3D CTG IC50 Mean of n1 and n2

IC50 [1] [nM]	IC50 [2] [nM]	IC50 [3] [nM]	SMILES
1.6	2.9	2.25	Cc1ccc2nc(Nc3nnc4c(c3C)CCCN4c3ccc(-c4cnn(CC56CC7(C)CC(C)(C5)CC(OCCN5CCCC5)(C7)C6)c4C)c(C(=O)O)n3)sc2c1 [P64, 3-[1-[[3,5-dimethyl-7-(2-pyrrolidin-1-ylethoxy)-1-adamantyl]methyl]-5-methyl-pyrazol-4-yl]-6-[4-methyl-3-[(6-methyl-1,3-benzothiazol-2-yl)amino]-6,7-dihydro-5H-pyrido[2,3-c]pyridazin-8-yl]pyridine-2-carboxylic acid]
1	1.2	1.1	Cc1c(Nc2nc3ccc(F)cc3s2)nnc2c1CCCN2c1ccc(-c2cnn(CC34CC5(C)CC(C)(C3)CC(OCCN3CCCC3)(C5)C4)c2C)c(C(=O)O)n1 [P65, 3-[1-[[3,5-dimethyl-7-(2-pyrrolidin-1-ylethoxy)-1-adamantyl]methyl]-5-methyl-pyrazol-4-yl]-6-[3-[(6-fluoro-1,3-benzothiazol-2-yl)amino]-4-methyl-6,7-dihydro-5H-pyrido[2,3-c]pyridazin-8-yl]pyridine-2-carboxylic acid]
0.49	0.22	0.355	Cc1c(Nc2nc3ccccc3s2)nnc2c1CCCN2c1ccc(-c2cnn(CC34CC5(C)CC(C)(CC(CCCN(C)C)(C5)C3)C4)c2C)c(C(=O)O)n1 [P66, 6-[3-(1,3-benzothiazol-2-ylamino)-4-methyl-6,7-dihydro-5H-pyrido[2,3-c]pyridazin-8-yl]-3-[1-[[3-[3-(dimethylamino)propyl]-5,7-dimethyl-1-adamantyl]methyl]-5-methyl-pyrazol-4-yl]pyridine-2-carboxylic acid]
0.84	0.68	0.76	Cc1c(Nc2nc3ccccc3s2)nnc2c1CCCN2c1ccc(-c2cnn(CC34CC5(C)CC(C)(CC(CCCN(C)CCCO)(C5)C3)C4)c2C)c(C(=O)O)n1 [P68, 6-[3-(1,3-benzothiazol-2-ylamino)-4-methyl-6,7-dihydro-5H-pyrido[2,3-c]pyridazin-8-yl]-3-[1-[[3-[3-[3-hydroxypropyl(methyl)amino]propyl]-5,7-dimethyl-1-adamantyl]methyl]-5-methyl-pyrazol-4-yl]pyridine-2-carboxylic acid]
3.78	5.56	4.67	Cc1c(Nc2nc3ccccc3s2)nnc2c1CCCN2c1ccc(-c2cnn(CC34CC5(C)CC(C)(CC(CCCNCC[C@H](O)CO)(C5)C3)C4)c2C)c(C(=O)O)n1 [P69, 6-[3-(1,3-benzothiazol-2-ylamino)-4-methyl-6,7-dihydro-5H-pyrido[2,3-c]pyridazin-8-yl]-3-[1-[[3-[3-[[(3S)-3,4-dihydroxybutyl]amino]propyl]-5,7-dimethyl-1-adamantyl]methyl]-5-methyl-pyrazol-4-yl]pyridine-2-carboxylic acid]
9.65	9.49	9.57	Cc1c(Nc2nc3ccccc3s2)nnc2c1CCCN2c1ccc(-c2cnn(CC34CC5(C)CC(C)(C3)CC(OCCN(C)CCC(=O)O)(C5)C4)c2C)c(C(=O)O)n1 [P70, 6-[3-(1,3-benzothiazol-2-ylamino)-4-methyl-6,7-dihydro-5H-pyrido[2,3-c]pyridazin-8-yl]-3-[1-[[3-[2-[2-carboxyethyl(methyl)amino]ethoxy]-5,7-dimethyl-1-adamantyl]methyl]-5-methyl-pyrazol-4-yl]pyridine-2-carboxylic acid]
16.3	13.4	14.8	Cc1c(Nc2nc3ccccc3s2)nnc2c1CCCN2c1ccc(-c2cnn(CC34CC5(C)CC(C)(C3)CC(OCCNCCC(=O)O)(C5)C4)c2C)c(C(=O)O)n1 [P71, 6-[3-(1,3-benzothiazol-2-ylamino)-4-methyl-6,7-dihydro-5H-pyrido[2,3-c]pyridazin-8-yl]-3-[1-[[3-[2-(2-carboxyethylamino)ethoxy]-5,7-dimethyl-1-adamantyl]methyl]-5-methyl-pyrazol-4-yl]pyridine-2-carboxylic acid]
5.07	5.57	5.32	Cc1c(Nc2nc3ccccc3s2)nnc2c1CCCN2c1ccc(-c2cnn(CC34CC5(C)CC(C)(CC(CCCNCCCCO)(C5)C3)C4)c2C)c(C(=O)O)n1 [P72, 6-[3-(1,3-benzothiazol-2-ylamino)-4-methyl-6,7-dihydro-5H-pyrido[2,3-c]pyridazin-8-yl]-3-[1-[[3-[3-(4-hydroxybutylamino)propyl]-5,7-dimethyl-1-adamantyl]methyl]-5-methyl-pyrazol-4-yl]pyridine-2-carboxylic acid]
8.6	9.41	9.01	Cc1c(Nc2nc3ccccc3s2)nnc2c1CCCN2c1ccc(-c2cnn(CC34CC5(C)CC(C)(C3)CC(OCCN3CCCC3)(C5)C4)c2C)c(CO)n1 [P73, [6-[3-(1,3-benzothiazol-2-ylamino)-4-methyl-6,7-dihydro-5H-pyrido[2,3-c]pyridazin-8-yl]-3-[1-[[3,5-dimethyl-7-(2-pyrrolidin-1-ylethoxy)-1-adamantyl]methyl]-5-methyl-pyrazol-4-yl]-2-pyridyl]methanol]
2	1.86	1.93	Cc1c(Nc2nc3ccccc3s2)nnc2c1CCCN2c1ccc(-c2cnn(CC34CC5(C)CC(C)(C3)CC(OCCN3CCCC3)(C5)C4)c2C)c(C(=O)N2CCCC2)n1 [P74, [6-[3-(1,3-benzothiazol-2-ylamino)-4-methyl-6,7-dihydro-5H-pyrido[2,3-c]pyridazin-8-yl]-3-[1-[[3,5-dimethyl-7-(2-pyrrolidin-1-ylethoxy)-1-adamantyl]methyl]-5-methyl-pyrazol-4-yl]-2-pyridyl]-pyrrolidin-1-yl-methanone]
2.3	3.03	2.67	Cc1c(Nc2nc3ccccc3s2)nnc2c1CCCN2c1ccc(-c2cnn(CC34CC5(C)CC(C)(C3)CC(OCCN3CCCC3)(C5)C4)c2C)c(C(=O)NC(C)C)n1 [P75, 6-[3-(1,3-benzothiazol-2-ylamino)-4-methyl-6,7-dihydro-5H-pyrido[2,3-c]pyridazin-8-yl]-3-[1-[[3,5-dimethyl-7-(2-pyrrolidin-1-ylethoxy)-1-adamantyl]methyl]-5-methyl-pyrazol-4-yl]-N-isopropyl-pyridine-2-carboxamide]
2	3.87	2.94	Cc1c(Nc2nc3ccccc3s2)nnc2c1CCCN2c1ccc(-c2cnn(CC34CC5(C)CC(C)(C3)CC(OCCN3CCCC3)(C5)C4)c2C)c(C(N)=O)n1 [P76, 6-[3-(1,3-benzothiazol-2-ylamino)-4-methyl-6,7-dihydro-5H-pyrido[2,3-c]pyridazin-8-yl]-3-[1-[[3,5-dimethyl-7-(2-pyrrolidin-1-ylethoxy)-1-adamantyl]methyl]-5-methyl-pyrazol-4-yl]pyridine-2-carboxamide]

— patent publication US20240269304A1, “BCL-XL INHIBITOR ANTIBODY-DRUG CONJUGATES AND METHODS OF USE THEREOF” (Novartis AG, priority 2020, published 2024)
